Data reported in patent publication US20090304818A1, “METHOD OF TREATMENT” (priority 2005, published 2009).

Tested on: sepsis in conscious sheep
Assay: Ang II infusion in E. coli-induced sepsis in conscious sheep (FIG. 1)
Format: in vivo
Conditions: sepsis + Ang II infusion period, four conscious sheep
Description: Seven female Merino ewes weighing between 34.2 kg and 47.3 kg were procured for chronic instrumentation. The sheep were held and studied in metabolic cages, with free access to food and water. The animals underwent two separate operative procedures. For all procedures, anaesthesia was induced with sodium thiopentone (15 mg/kg) for endotracheal tube placement (cuff size 10). Maintenance anaesthesia was by means of oxygen/air/isoflurane (1 to 2%). Fractional inspired oxygen was altered to maintain PaO2 at approximately 100 mm Hg, and ventilation was controlled to maintain PaCO2 at approximately 40 mm Hg.
First, a left-sided thoracotomy was performed. The pericardium was opened, and a transit time flow probe (20 mm, Transonics Systems, Ithaca, N.Y.) was placed around the pulmonary artery to measure cardiac output. After two weeks recovery, a left-sided flank incision was made and a retroperitoneal dissection was performed to expose the left renal artery. […]
Analog signals of mean arterial pressure (MAP), central venous pressure (CVP), cardiac output (CO), and renal blood flow (RBF) were collected using a PC using a customized data acquisition system (Labview National Instruments). Data were recorded at 100 Hz for 10 s at every minute throughout the experimental protocol. Total peripheral conductance (TPC) (cardiac output/mean arterial pressure) and renal vascular conductance (RVC) (renal blood flow/mean arterial pressure) were calculated.
During the experimental periods MAP, CVP, CO, RBF and heart rate were measured continuously. Following a 12-hour baseline period, sheep were monitored for a 48 hour control period. After 7 days, sheep were monitored for a 2nd baseline period, followed by induction of sepsis by intravenous administration of a bolus of live E. coli (3.9×10^9 colony forming units in 15 mL saline), followed by a continuous infusion ([…] at 5 mL/h) for 48 h. […]
In both treatments, after the 12-hour baseline period, normal saline (1 mL/kg/h) was infused to avoid hypovolemia. Urinary output was measured and urine sampled every 90 minutes. […]

angiotensin II (DRVYIHPF; Angiotensin-2; UniProt P01019 25-32, looked up) [Ang II, vasoconstricting agent with preferential action on the efferent arteriole of the glomerulus; acts at the AT-1 receptor]
return these variables to normal: renal blood flow (increased in sepsis) | mean arterial pressure (reduced in sepsis) | urine output (reduced in sepsis)
